Laboratory results taken from publication PMC12439480, “Dimeric CCK2R radiotheranostic tracers synergize with mTOR inhibition for enhanced tumor therapy” (Theranostics, 2025).
Like-named read-outs stand apart in the source and are kept apart here. Numbered stars: 1 amine (or outer) side, 2 acyl side, 3 side chain; on linkers, the order of the positions; unused ones are H or OH. Square brackets hold non-standard residues; d marks the D form. Side chains are listed from the residue outwards. Peptide text beside a SMILES is read from it. * marks the point of attachment. DOTA = O=C(O)CN1CCN(CC(=O)O)CCN(CC(=O)*)CCN(CC(=O)O)CC1; d(γGlu) = O=C(O)[C@@H](CCC(=O)[*:2])N[*:1]; 1Nal = N[C@@H](Cc1cccc2ccccc12)C(=O)O; NMeNle = CCCC[C@H](NC)C(=O)O; PEG4 = NCCOCCOCCOCCOCCC(=O)O

Assay: Ex vivo biodistribution of 177Lu-labeled compound
Set-up: species or system BALB/c nude mice
Conditions: mouse, in vivo; for tissue to tissue ratio at 24 h / tissue to tissue ratio at 48 h / tissue to tissue ratio at 72 h / tissue to tissue ratio at 96 h / tissue to tissue ratio at 1 h / tissue to tissue ratio at 4 h: female, BALB/c nude, iv, total radioactivity
Experimental: To evaluate the biodistribution of [^177Lu]Lu-DOTA-CCK2R-dimer, AR42J tumor-bearing mice received intravenous (i.v.) injections of 3.7 MBq (≈ 120 pmol) of [^177Lu]Lu-DOTA-CCK2R-dimer (dissolved in 200 μL of saline; n = 3/group), and Mice were sacrificed at 1, 4, 24, 48, 72, and 96 h post-injection. The tissues of interest were excised, weighed, and analyzed for radioactivity using a γ-counter.
All animal studies were approved by the Ethics Committee of Fudan University Shanghai Cancer Center (No. FUSCC-IACUC- S2023- 0003). Five-week-old female BALB/c nude mice were purchased from Shanghai SLAC Laboratory Animal
Company. To establish cell-derived xenograft (CDX) models, 1 × 10⁶ AR42J cells (100 μL) were subcutaneously inoculated into the right shoulder of each mouse. […]
Radioactivity levels were measured using a gamma counter, with decay correction applied based on the injection time. The percentage of injected dose per gram of tissue (%ID/g) was calculated for each time point. […]

[1] = 3.7 MBq, Tumor-to-Bladder ratio (T/B)
[2] = 3.7 MBq, Tumor-to-Blood ratio (T/B)
[3] = 3.7 MBq, Tumor-to-Bone ratio (T/B)
[4] = 3.7 MBq, Tumor-to-Brain ratio (T/B)
[5] = 3.7 MBq, Tumor-to-Heart ratio (T/B)
[6] = 3.7 MBq, Tumor-to-Liver ratio (T/B)
[7] = 3.7 MBq, Tumor-to-Muscle ratio (T/M)
[8] = 3.7 MBq, Tumor-to-Stomach ratio (T/B)
[9] = Tumor-to-Large intestine ratio (T/B)
[10] = Tumor-to-Small intestine ratio (T/B)

## CCCC[C@@H](C(=O)N[C@@H](CC(=O)O)C(=O)N[C@@H](Cc1cccc2ccccc12)C(N)=O)N(C)C(=O)[C@H](Cc1c[nH]c2ccccc12)NC(=O)CCOCCOCCOCCOCCNC(=O)CC[C@@H](NC(=O)CC[C@H](NC(=O)CN1CCN(CC(=O)O)CCN(CC(=O)O)CCN(CC(=O)O)CC1)C(=O)N[C@H](CCC(=O)NCCOCCOCCOCCOCCC(=O)N[C@@H](Cc1c[nH]c2ccccc12)C(=O)N(C)[C@@H](CCCC)C(=O)N[C@@H](CC(=O)O)C(=O)N[C@@H](Cc1cccc2ccccc12)C(N)=O)C(=O)O)C(=O)O [[177Lu]Lu-DOTA-CCK2R-dimer, metal not drawn] ({DOTA}-E([d(γGlu)-PEG4-Trp-NMeNle-Asp-1Nal-NH2])[d(γGlu)][PEG4]W[NMeNle]D[1Nal]-NH2)
[1]
  tissue to tissue ratio at 24 h: 35.4 ± 6.48
  tissue to tissue ratio at 48 h: 194 ± 91
  tissue to tissue ratio at 72 h: 44.7 ± 13.1
  tissue to tissue ratio at 96 h: 13.5 ± 4.12
[2]
  tissue to tissue ratio at 1 h: 2.95 ± 1.5
  tissue to tissue ratio at 4 h: 13.3 ± 5.68
  tissue to tissue ratio at 24 h: 141 ± 51.3
  tissue to tissue ratio at 48 h: 186 ± 14.3
  tissue to tissue ratio at 72 h: 768 ± 140
  tissue to tissue ratio at 96 h: 226 ± 40.9
[3]
  tissue to tissue ratio at 1 h: 35.1 ± 13.6
  tissue to tissue ratio at 4 h: 53.2 ± 32.6
  tissue to tissue ratio at 24 h: 165 ± 45
  tissue to tissue ratio at 48 h: 1070 ± 247
  tissue to tissue ratio at 72 h: 117 ± 40.1
  tissue to tissue ratio at 96 h: 46 ± 9.49
[4]
  tissue to tissue ratio at 1 h: 141 ± 50
  tissue to tissue ratio at 4 h: 470 ± 81.1
  tissue to tissue ratio at 24 h: 6080 ± 100
  tissue to tissue ratio at 48 h: 1710 ± 151
  tissue to tissue ratio at 72 h: 746 ± 85.1
  tissue to tissue ratio at 96 h: 189 ± 50.1
[5]
  tissue to tissue ratio at 1 h: 15.3 ± 5.59
  tissue to tissue ratio at 96 h: 105 ± 5.19
[6]
  tissue to tissue ratio at 1 h: 5.19 ± 2.8
  tissue to tissue ratio at 4 h: 4.37 ± 0.9
  tissue to tissue ratio at 24 h: 10 ± 0.99
  tissue to tissue ratio at 48 h: 7.78 ± 1.96
[7]
  tissue to tissue ratio at 1 h: 53.3 ± 18.2
  tissue to tissue ratio at 4 h: 246 ± 180
  tissue to tissue ratio at 24 h: 417 ± 210
  tissue to tissue ratio at 48 h: 531 ± 153
  tissue to tissue ratio at 72 h: 348 ± 238
  tissue to tissue ratio at 96 h: 90.8 ± 32.8
[8]
  tissue to tissue ratio at 1 h: 4.83 ± 1.46
  tissue to tissue ratio at 96 h: 13.4 ± 6.42
3.7 MBq, 1 h p.i., read-out: Tumor-to-Kidney ratio (T/B)
  tissue to tissue ratio at 1 h: 2.22 ± 1.01
3.7 MBq, 48 h p.i., read-out: Tumor-to-Kidney ratio (T/B)
  tissue to tissue ratio at 48 h: 4.16 ± 3.43
Tumor-to-Bladder ratio (T/B)
  tissue to tissue ratio at 1 h: 24.8 ± 11
  tissue to tissue ratio at 4 h: 40.4 ± 12.1
Tumor-to-Heart ratio (T/B)
  tissue to tissue ratio at 4 h: 29.6 ± 12.8
  tissue to tissue ratio at 24 h: 134 ± 59.9
  tissue to tissue ratio at 48 h: 406 ± 29.2
  tissue to tissue ratio at 72 h: 80.5 ± 26.4
[9]
  tissue to tissue ratio at 1 h: 17.1 ± 5.58
  tissue to tissue ratio at 4 h: 24.4 ± 5.51
  tissue to tissue ratio at 24 h: 90.7 ± 23.4
  tissue to tissue ratio at 48 h: 73.2 ± 14.5
  tissue to tissue ratio at 72 h: 98.9 ± 74.4
  tissue to tissue ratio at 96 h: 26.3 ± 11
Tumor-to-Liver ratio (T/B)
  tissue to tissue ratio at 72 h: 5.53 ± 1.05
  tissue to tissue ratio at 96 h: 2.7 ± 0.63
Tumor-to-Lung ratio (T/B)
  tissue to tissue ratio at 1 h: 7.93 ± 3.29
  tissue to tissue ratio at 4 h: 15.9 ± 6.64
  tissue to tissue ratio at 24 h: 331 ± 35
  tissue to tissue ratio at 48 h: 900 ± 88
  tissue to tissue ratio at 72 h: 299 ± 66.5
  tissue to tissue ratio at 96 h: 61.2 ± 12.8
[10]
  tissue to tissue ratio at 1 h: 14 ± 5.39
  tissue to tissue ratio at 4 h: 28.8 ± 10.3
  tissue to tissue ratio at 24 h: 229 ± 10
  tissue to tissue ratio at 48 h: 112 ± 61
  tissue to tissue ratio at 72 h: 187 ± 27.7
  tissue to tissue ratio at 96 h: 39.6 ± 12.2
Tumor-to-Spleen ratio (T/B)
  tissue to tissue ratio at 1 h: 8.21 ± 4.18
  tissue to tissue ratio at 4 h: 6.59 ± 0.75
  tissue to tissue ratio at 24 h: 55 ± 21.1
  tissue to tissue ratio at 48 h: 124 ± 50
  tissue to tissue ratio at 72 h: 51.8 ± 19.5
  tissue to tissue ratio at 96 h: 9.63 ± 3.59
Tumor-to-Stomach ratio (T/B)
  tissue to tissue ratio at 4 h: 5.05 ± 1.72
  tissue to tissue ratio at 24 h: 5.94 ± 1.92
  tissue to tissue ratio at 48 h: 4.15 ± 0.31
  tissue to tissue ratio at 72 h: 8.41 ± 1.18
4 h p.i., read-out: Tumor-to-Kidney ratio (T/B)
  tissue to tissue ratio at 4 h: 2.19 ± 0.23
24 h p.i., read-out: Tumor-to-Kidney ratio (T/B)
  tissue to tissue ratio at 24 h: 1.84 ± 0.56
72 h p.i., read-out: Tumor-to-Kidney ratio (T/B)
  tissue to tissue ratio at 72 h: 1.65 ± 0.05
96 h p.i., read-out: Tumor-to-Kidney ratio (T/B)
  tissue to tissue ratio at 96 h: 1.37 ± 0.84
Bladder uptake
  tissue uptake at 1 h: 0.84 ± 0.31 %ID/g
  tissue uptake at 4 h: 0.4 ± 0.13 %ID/g
  tissue uptake at 24 h: 0.18 ± 0.04 %ID/g
